{"source": "patent US7482032B2", "about": "“Carotenoid preparation” (I.B.R. Israeli Biotechnology Research, Ltd., priority 1998, dated 2009)", "key": {"[1]": {"assay": "UV absorbance spectra (spectrophotometric analysis)", "format": "physicochemical", "settings": "extract from Dunaliella sp.", "protocol": "Absorption spectra of the phytoene and phytofluene extract was determined using Hewlett Packard 8452A Diode Array Spectrophotometer.\nAs expected, the main absorbance peak for β-carotene was at 450 nm. β-Carotene was reduced due to the synthesis inhibition while phytoene and phytofluene increased."}, "[2]": {"assay": "Stability under visible light (filtered sunlight, aerobic)", "format": "physicochemical", "protocol": "Stability of phytoene and phytofluene under visible light was measured under sunlight (full sun summer day in Rehovot, Israel, at noon) filtered through “hot mirror” (Andover Corporation, Salem, N.H., transmittance 400-650 nm) filter. Samples were dissolved in ethanol, exposed to light for 30-150 min and then extracted in hexane after basic hydrolysis (as in extraction method above). Phytoene, phytofluene and beta-carotene amounts were measured spectrophotometrically, and percentage lefts were calculated as in section 5 above.\nStability of phytoene and phytofluene was compared to that of beta-carotene stability (as explained in materials and methods) under visible light. The absorbance of the preparation is determined in 220-600 nm wavelength and the amount of each of the above carotenoids in each sample is calculated to determine the percent of the carotenoids measured after irradation of the extract compared to measurements prior to irradiant (see example 2 above)."}, "[3]": {"tested_on": "DNA repair synthesis activity", "assay": "Genotoxic effect: induction of DNA repair synthesis activity (ratio R)", "format": "biochemical", "settings": "R≦2 no toxic effect", "protocol": "The genotoxicity is measured as the induction of DNA repair synthesis activity and is expressed by the ratio (R): while R≦2 indicate no toxic effect"}, "[4]": {"assay": "Stability of phytoene and phytofluene under UV irradiation (aerobic)", "format": "physicochemical", "protocol": "6. Stability of Phytoene and Phytofluene Under Aerobic Conditions in UV Lights and Various Incubation Temperatures\nStability of the carotenoids in the various temperatures was determined by long-term incubation of phytoene and phytofluene in several types of oils and solvents at 4° C., 23° C., 30° C. and 60° C. The amount of phytoene and phytofluene left was determined spectrophotometrically. The percent of phytoene and phytofluene left was calculated as follows:\n[formula] Stability under UV lights (254 nm, 365 nm, 254+365 nm), for 30 mins. at 300/310 μw/cm^2 was determined. 7. Stability of Phytoene and Phytofluene Under Aerobic Conditions in Visible Light\nThe stability of the phytoene and phytofluene extracts obtained as explained in Example 1 above was determined by spectrophotometric analysis. Phytoene and phytofluene were dissolved in hexane or oil. The absorbance of the preparation is determined in 220-600 nm and the amount of each of the above carotenoids in each sample is calculated to determine the percent of the carotenoids measured after irradiation of the extract divided by the amount of the same carotenoid which was measured in the extract before exposing it to irradiation (see Materials and Methods 5 above). The stability of the phytoene and phytofluene was measured by the exposure of the extract both to UVA light (365 nm) and UVB light (254 nm) irradiation as well as to a combination of UVA and UVB irradiation."}, "[5]": {"assay": "Stability of phytoene and phytofluene at various incubation temperatures in oils and solvents", "format": "physicochemical", "settings": "4° C., 23° C., 30° C. and 60° C., hexane or oils, four months", "protocol": "Stability of the carotenoids in the various temperatures was determined by long-term incubation of phytoene and phytofluene in several types of oils and solvents at 4° C., 23° C., 30° C. and 60° C. The amount of phytoene and phytofluene left was determined spectrophotometrically. The percent of phytoene and phytofluene left was calculated as follows: […]\nThe stability of phytoene and phytofluene under different temperature conditions (4° C., 23° C., 30° C. and 60° C.) in hexane or in other various commercially used oils was also measured.\nThe measurements were carried out over a period of four months."}, "[6]": {"settings": "254 nm + 365 nm, 30 minutes exposure, in hexane"}, "[7]": {"settings": "254 nm + 365 nm, 30 minutes exposure, in oil"}, "[8]": {"settings": "254 nm, 30 minutes exposure, in hexane"}, "[9]": {"settings": "254 nm, 30 minutes exposure, in oil"}, "[10]": {"settings": "365 nm, 30 minutes exposure, in hexane"}, "[11]": {"settings": "365 nm, 30 minutes exposure, in oil"}, "[12]": {"settings": "Darkness, 30 minutes, in hexane"}}}
{"smiles": "CC1=C(/C=C/C(C)=C/C=C/C(C)=C/C=C/C=C(C)/C=C/C=C(C)/C=C/C2=C(C)CCCC2(C)C)C(C)(C)CCC1", "note": "[Beta-carotene, reference compound]", "values": [{"measurement": "main absorbance peak", "setting": "[1]", "value": 450, "unit": "nm"}, {"measurement": "% left", "setting": "[2]; time of exposure 0 min", "value": 100, "unit": "%"}, {"measurement": "% left", "setting": "[2]; time of exposure 30 min", "value": 25.00, "unit": "%"}, {"measurement": "% left", "setting": "[2]; time of exposure 90 min", "value": 11.36, "unit": "%"}, {"measurement": "% left", "setting": "[2]; time of exposure 120 min", "value": 9.47, "unit": "%"}, {"measurement": "% left", "setting": "[2]; time of exposure 150 min", "value": 5.68, "unit": "%"}]}
{"smiles": "COS(C)(=O)=O", "note": "[MMS]", "values": [{"measurement": "Genotoxicity (Ratio)", "setting": "[3]; concentration 2 mM", "value": 2.44}, {"measurement": "Genotoxicity (Ratio)", "setting": "[3]; concentration 10 mM", "value": 6.26}]}
{"smiles": "CC(C)=CCC/C(C)=C/CC/C(C)=C/CC/C(C)=C/C=C/C=C(\\C)CC/C=C(\\C)CC/C=C(\\C)CCC=C(C)C", "note": "[Phytoene, 7,8, 11, 12, 7′, 8′, 11′, 12′-octahydro-γ,γ-carotene]", "values": [{"measurement": "main absorbance peak", "setting": "[1]", "value": 286, "unit": "nm"}, {"measurement": "% left", "setting": "[2]; time of exposure 0 min", "value": 100, "unit": "%"}, {"measurement": "% left", "setting": "[2]; time of exposure 30 min", "value": 54.46, "unit": "%"}, {"measurement": "% left", "setting": "[2]; time of exposure 90 min", "value": 20.33, "unit": "%"}, {"measurement": "% left", "setting": "[2]; time of exposure 120 min", "value": 15.70, "unit": "%"}, {"measurement": "% left", "setting": "[2]; time of exposure 150 min", "value": 13.64, "unit": "%"}, {"measurement": "PH and PF (% left)", "setting": "[4]; [6]", "value": 92.4, "unit": "%"}, {"measurement": "PH and PF (% left)", "setting": "[4]; [7]", "value": 101, "unit": "%"}, {"measurement": "PH and PF (% left)", "setting": "[4]; [8]", "value": 92.2, "unit": "%"}, {"measurement": "PH and PF (% left)", "setting": "[4]; [9]", "value": 100, "unit": "%"}, {"measurement": "PH and PF (% left)", "setting": "[4]; [10]", "value": 98.7, "unit": "%"}, {"measurement": "PH and PF (% left)", "setting": "[4]; [11]", "value": 100, "unit": "%"}, {"measurement": "PH and PF (% left)", "setting": "[4]; [12]", "value": 100, "unit": "%"}, {"measurement": "PH and PF (% left)", "setting": "[4]; Darkness, 30 minutes, in oil", "value": 100, "unit": "%"}, {"measurement": "Stability under different temperature conditions", "setting": "[5]", "value": "stable in the entire measured temperature range"}]}
{"smiles": "CC(C)=CCC/C(C)=C/CC/C(C)=C/C=C/C(C)=C/C=C/C=C(\\C)CC/C=C(\\C)CC/C=C(\\C)CCC=C(C)C", "note": "[Phytofluene, 15Z, 7,8, 11, 12, 7′, 8′-hexahydro-γ,γ-carotene]", "values": [{"measurement": "main absorbance peak", "setting": "[1]", "value": 348, "unit": "nm"}, {"measurement": "% left", "setting": "[2]; time of exposure 0 min", "value": 100, "unit": "%"}, {"measurement": "% left", "setting": "[2]; time of exposure 30 min", "value": 66.13, "unit": "%"}, {"measurement": "% left", "setting": "[2]; time of exposure 90 min", "value": 50.42, "unit": "%"}, {"measurement": "% left", "setting": "[2]; time of exposure 120 min", "value": 41.33, "unit": "%"}, {"measurement": "% left", "setting": "[2]; time of exposure 150 min", "value": 33.06, "unit": "%"}, {"measurement": "PH and PF (% left)", "setting": "[4]; [6]", "value": 99.0, "unit": "%"}, {"measurement": "PH and PF (% left)", "setting": "[4]; [7]", "value": 98, "unit": "%"}, {"measurement": "PH and PF (% left)", "setting": "[4]; [8]", "value": 92.6, "unit": "%"}, {"measurement": "PH and PF (% left)", "setting": "[4]; [9]", "value": 90, "unit": "%"}, {"measurement": "PH and PF (% left)", "setting": "[4]; [10]", "value": 101.5, "unit": "%"}, {"measurement": "PH and PF (% left)", "setting": "[4]; [11]", "value": 88, "unit": "%"}, {"measurement": "PH and PF (% left)", "setting": "[4]; [12]", "value": 100, "unit": "%"}, {"measurement": "PH and PF (% left)", "setting": "[4]; Darkness, 30 minutes, in oil", "value": 100, "unit": "%"}, {"measurement": "Stability under different temperature conditions", "setting": "[5]", "value": "stable in the entire measured temperature range"}]}
